What all share (type): biochemical
One experiment addresses PKR wt (Homo sapiens, UniProt P30613). Put plainly: PKR WT Single Point Percent Activation Assay. As for the experimental part:
PKR WT Single Point Percent Activation Assay
(§1) A compound described herein was diluted with DMSO and tested at 1 μM concentration. The enzyme was diluted in 1× Buffer: (100 mM KCl, 50 mM Tris 7.5, 5 mM MgCl2, 1 mM DTT, 0.03% BSA). 2 μL of compound solution was first added into wells, and then 180 μL of enzyme solution was added. Assays were assembled except for ADP, and plates were stored for 60 minutes at RT. 20 μL ADP was added to start the assay and assay output was evaluated using OD340 at SpectraMax. The assay was run at room temperature.
Final concentration: PKR wt (100 ng/well), Tris pH 7.5 (50 mM), KCl (100 mM), MgCl2 (5 mM), ADP (0.48 mM), PEP (0.15 mM), NADH (180 μM), LDH (0.5 units, Sigma 59023), DTT (1 mM) and BSA (0.03%).

For a further experiment, the target named is PKR R510Q (Homo sapiens, UniProt P30613, R510Q). The experiment is described as follows: PKR R510Q Single Point Percent Activation Assay. The conditions noted are these: read-out: Act. % 510Q. On the procedure:
PKR R510Q Single Point Percent Activation Assay
as §1
Final concentration: PKR R510Q (40 ng/well), Tris pH 7.5 (50 mM), KCl (100 mM), MgCl2 (5 mM), ADP (0.2 mM), PEP (0.11 mM), NADH (180 μM), LDH (0.5 units, Sigma 59023), DTT (1 mM) and BSA (0.03%).

The target in another experiment is PKR T384W (Homo sapiens, UniProt P30613, T384W). Put plainly: PKR T384W Single Point Percent Activation Assay. Particulars: read-out: Act. % 384W. As for the experimental part:
PKR T384W Single Point Percent Activation Assay
A compound described herein was diluted with DMSO and tested at 1 μM concentration. The enzyme was diluted in 1× Buffer: (100 mM KCl, 50 mM Tris 7.5, 5 mM MgCl2, 1 mM DTT, 0.03% BSA). 2 μL of compound solution was first added into wells, and then 180 μL enzyme solution was added. Assays were assembled except for ADP, and plates were stored for 60 minutes at RT. 20 μL ADP was added to start the assay and assay output was evaluated using OD340 at SpectraMax. The assay was run at room temperature.
Final concentration: PKR T384W soluble (300 ng/well), Tris pH 7.5 (50 mM), KCl (100 mM), MgCl2 (5 mM), ADP (0.08 mM), PEP (0.23 mM), NADH (180 μM), LDH (0.5 units, Sigma 59023), DTT (1 mM) and BSA (0.03%).

The next experiment has as its target PKR R532W (Homo sapiens, UniProt P30613, R532W). The experiment is described as follows: PKR R532W Single Point Percent Activation Assay. The conditions noted are these: read-out: Act, % 532W. On the procedure: PKR R532W Single Point Percent Activation Assay
as §1
Final concentration: PKR R532W (100 ng/well), Tris pH 7.5 (50 mM), KCl (100 mM), MgCl2 (5 mM), ADP (0.36 mM), PEP (0.1 mM), NADH (180 μM), LDH (0.5 units, Sigma 59023), DTT (1 mM) and BSA (0.03%).

Chain of PKR wt (P30613 whole entry): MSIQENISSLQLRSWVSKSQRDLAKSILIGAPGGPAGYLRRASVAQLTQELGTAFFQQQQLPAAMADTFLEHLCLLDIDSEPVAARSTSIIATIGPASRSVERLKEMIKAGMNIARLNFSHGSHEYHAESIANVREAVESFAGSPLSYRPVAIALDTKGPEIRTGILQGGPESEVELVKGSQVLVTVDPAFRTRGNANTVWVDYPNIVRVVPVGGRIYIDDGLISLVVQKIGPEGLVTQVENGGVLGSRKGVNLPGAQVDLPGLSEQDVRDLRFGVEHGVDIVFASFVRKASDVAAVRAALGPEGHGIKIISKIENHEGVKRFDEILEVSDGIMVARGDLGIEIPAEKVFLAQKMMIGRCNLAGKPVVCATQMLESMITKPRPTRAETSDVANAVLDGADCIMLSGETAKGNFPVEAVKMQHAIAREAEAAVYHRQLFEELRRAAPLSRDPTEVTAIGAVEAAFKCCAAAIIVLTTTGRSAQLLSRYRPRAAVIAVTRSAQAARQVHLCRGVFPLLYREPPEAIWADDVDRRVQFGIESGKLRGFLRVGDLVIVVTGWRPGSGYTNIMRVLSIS
Chain of PKR R532W (P30613 whole entry R532W): as the sequence (P30613 whole entry) above, with R532W counted along it
Chain of PKR T384W (P30613 whole entry T384W): as the sequence (P30613 whole entry) above, with T384W counted along it
Chain of PKR R510Q (P30613 whole entry R510Q): as the sequence (P30613 whole entry) above, with R510Q counted along it

With `C[C@@H]1CN(Cc2cc(F)c(F)c(F)c2)CCN1C(=O)c1ccc(NS(=O)(=O)c2cccc3cccnc23)cc1`, the activation at 1 µM at PKR wt lay within 1 to 100%; on PKR R510Q, 101 to 500%; at PKR T384W, 1 to 100%; at PKR R532W, 1 to 100%.
As to `O=C(c1ccc(NS(=O)(=O)c2cccc3cccnc23)cc1)N1CC2CCC(C1)N2Cc1cc(F)cc(F)c1`, the activation at 1 µM at PKR wt fell in the range of 101 to 500%; on PKR R510Q, 101 to 500%; at PKR T384W it was 101 to 500%; at PKR R532W, 1 to 100%.
Regarding `COc1ccccc1N1C[C@@H](C)N(C(=O)c2ccc(NS(=O)(=O)c3cccc4cccnc34)cc2)[C@@H](C)C1`, the activation at 1 µM on PKR wt, on PKR R510Q, at PKR T384W and on PKR R532W was 101 to 500% each time.
For the molecule `C[C@H]1CN(Cc2c(F)ccc(F)c2F)CCN1C(=O)c1ccc(NS(=O)(=O)c2cccc3cccnc23)cc1`, the activation at 1 µM is 101 to 500% at PKR wt, 1 to 100% on PKR R510Q, 101 to 500% at PKR T384W and 1 to 100% on PKR R532W.
Consider `COc1cccc(CN2CCN(C(=O)c3ccc(NS(=O)(=O)c4cccc5cccnc45)cc3)[C@@H](C)C2)c1OC`, for which the activation at 1 µM lay in the range of 101 to 500% on PKR wt, 1 to 100% on PKR R510Q, 101 to 500% at PKR T384W and 1 to 100% at PKR R532W.
As for `O=C(c1ccc(NS(=O)(=O)c2cccc3cccnc23)cc1)N1CCN(Cc2ccc(F)cc2)c2ccccc21`, the activation at 1 µM on PKR wt, on PKR R510Q, on PKR T384W and on PKR R532W was 1 to 100% throughout.
In the case of `CC1CN(CC2CC2)CC(C)N1C(=O)c1ccc(NS(=O)(=O)c2cccc3cccnc23)cc1` (centres unmarked), the activation at 1 µM on PKR wt lay within 101 to 500%; at PKR R510Q, 1 to 100%; on PKR T384W, 101 to 500%; on PKR R532W it was 101 to 500%.
As to `C[C@@H]1CN(Cc2ccccc2F)CCN1C(=O)c1ccc(NS(=O)(=O)c2cccc3cccnc23)cc1`, the activation at 1 µM on PKR wt, on PKR R510Q, on PKR T384W and on PKR R532W was 101 to 500% throughout.
For the molecule `CC1CN(Cc2ccc(Cl)c(F)c2)CC(C)N1C(=O)c1ccc(NS(=O)(=O)c2cccc3cccnc23)cc1` (centres unmarked), the activation at 1 µM at PKR wt lay within 101 to 500%; at PKR R510Q, 101 to 500%; on PKR T384W, 101 to 500%; at PKR R532W, 1 to 100%.
In the case of `C[C@@H]1CN(C(=O)OC2CCCOC2)CCN1C(=O)c1ccc(NS(=O)(=O)c2cccc3cccnc23)cc1` (some centres unmarked), the activation at 1 µM at PKR wt, on PKR R510Q, at PKR T384W and at PKR R532W was 101 to 500% each time.
Take `CC(C)OC(=O)N1CCN(C(=O)c2ccc(NS(=O)(=O)c3cccc4cccnc34)cc2)[C@@H](C)C1`: the activation at 1 µM on PKR wt lay in the range of 1 to 100%; on PKR R510Q it was 101 to 500%; at PKR T384W, 1 to 100%; at PKR R532W, 101 to 500%.
Take `CC(c1ccc(F)cc1)N1CCN(C(=O)c2ccc(NS(=O)(=O)c3cccc4cccnc34)cc2)[C@H](C)C1` (some centres unmarked): the activation at 1 µM at PKR wt, on PKR R510Q, on PKR T384W and on PKR R532W was 101 to 500% in each case.
Consider `C[C@H]1CN(Cc2c(F)cc(F)cc2F)CCN1C(=O)c1ccc(NS(=O)(=O)c2cccc3cccnc23)cc1`, for which the activation at 1 µM at PKR wt lay in the range of 1 to 100%; at PKR R510Q it was 1 to 100%; at PKR T384W, 101 to 500%; on PKR R532W, 101 to 500%.
As for `CC(c1ccc(Cl)c(F)c1)N1CCN(C(=O)c2ccc(NS(=O)(=O)c3cccc4cccnc34)cc2)[C@H](C)C1` (some centres unmarked), the activation at 1 µM was in the range of 1 to 100% on PKR wt, 101 to 500% at PKR R510Q, 101 to 500% on PKR T384W and 1 to 100% on PKR R532W.
Take `C[C@H]1CN(Cc2ccc(Cl)c(F)c2)CCN1C(=O)c1ccc(NS(=O)(=O)c2cccc3cccnc23)cc1`: the activation at 1 µM on PKR wt was in the range of 101 to 500%; at PKR R510Q, 101 to 500%; at PKR T384W, 1 to 100%; on PKR R532W it was 101 to 500%.
As to `C[C@H]1CN(Cc2cc(F)c(F)c(F)c2)CCN1C(=O)c1ccc(NS(=O)(=O)c2cccc3cccnc23)cc1`, the activation at 1 µM at PKR wt is 1 to 100%; at PKR R510Q it was 1 to 100%; at PKR T384W it was 101 to 500%; on PKR R532W, 1 to 100%.
As to `C[C@@H]1CN(Cc2c(F)ccc(F)c2F)CCN1C(=O)c1ccc(NS(=O)(=O)c2cccc3cccnc23)cc1`, the activation at 1 µM lay in the range of 101 to 500% at PKR wt, 1 to 100% on PKR R510Q, 101 to 500% on PKR T384W and 101 to 500% on PKR R532W.
With `CCOC(=O)N1CCN(C(=O)c2ccc(NS(=O)(=O)c3cccc4cccnc34)cc2)c2ccccc21`, the activation at 1 µM on PKR wt is 101 to 500%; on PKR R510Q, 101 to 500%; at PKR T384W it was 1 to 100%; on PKR R532W, 101 to 500%.
As to `CC1CN(Cc2c(F)ccc(F)c2F)CC(C)N1C(=O)c1ccc(NS(=O)(=O)c2cccc3cccnc23)cc1` (centres unmarked), the activation at 1 µM on PKR wt lay within 1 to 100%; at PKR R510Q, 1 to 100%; at PKR T384W, 1 to 100%; on PKR R532W, 101 to 500%.
Turning to `C[C@H]1CN(CC2CC2)CCN1C(=O)c1ccc(NS(=O)(=O)c2cccc3cccnc23)cc1`, the activation at 1 µM lay in the range of 101 to 500% at PKR wt, 1 to 100% on PKR R510Q, 1 to 100% at PKR T384W and 101 to 500% at PKR R532W.
Take `C[C@H]1CN(CC2CCCCO2)CCN1C(=O)c1ccc(NS(=O)(=O)c2cccc3cccnc23)cc1` (some centres unmarked): the activation at 1 µM at PKR wt, at PKR R510Q, on PKR T384W and at PKR R532W was 1 to 100% each time.
In the case of `C[C@@H]1CN(Cc2ccccc2)CCN1C(=O)c1ccc(NS(=O)(=O)c2cccc3cccnc23)cc1`, the activation at 1 µM on PKR wt, on PKR R510Q, at PKR T384W and at PKR R532W was 101 to 500% each time.
Take `C[C@@H]1CN(C(=O)OC2CCCCC2)CCN1C(=O)c1ccc(NS(=O)(=O)c2cccc3cccnc23)cc1`: the activation at 1 µM on PKR wt, at PKR R510Q, at PKR T384W and on PKR R532W was 1 to 100% throughout.
With `CC1CN(Cc2cc(F)c(F)cc2F)CC(C)N1C(=O)c1ccc(NS(=O)(=O)c2cccc3cccnc23)cc1` (centres unmarked), the activation at 1 µM lay within 101 to 500% on PKR wt, 101 to 500% at PKR R510Q, 1 to 100% on PKR T384W and 1 to 100% at PKR R532W.
On to `C[C@H]1CN(C(=O)OCC2CC2)CCN1C(=O)c1ccc(NS(=O)(=O)c2cccc3cccnc23)cc1`, for which the activation at 1 µM at PKR wt is 101 to 500%; on PKR R510Q, 1 to 100%; on PKR T384W, 101 to 500%; at PKR R532W it was 101 to 500%.
With `C[C@@H]1CN(C(=O)OC2CCOCC2)CCN1C(=O)c1ccc(NS(=O)(=O)c2cccc3cccnc23)cc1`, the activation at 1 µM at PKR wt, at PKR R510Q, at PKR T384W and on PKR R532W was 1 to 100% throughout.
With `C[C@@H]1CN(C[C@H]2CCCO2)CCN1C(=O)c1ccc(NS(=O)(=O)c2cccc3cccnc23)cc1`, the activation at 1 µM at PKR wt lay in the range of 101 to 500%; at PKR R510Q, 1 to 100%; on PKR T384W, 101 to 500%; on PKR R532W, 101 to 500%.
Take `O=C(c1ccc(NS(=O)(=O)c2cccc3cccnc23)cc1)N1C2CCC1CN(Cc1ccc(F)cc1)C2`: the activation at 1 µM on PKR wt lay in the range of 1 to 100%; on PKR R510Q, 101 to 500%; at PKR T384W, 101 to 500%; at PKR R532W it was 1 to 100%.
Turning to `O=C(c1ccc(NS(=O)(=O)c2cccc3cccnc23)cc1)N1CCN(Cc2cc(F)cc(F)c2)c2ccccc21`, the activation at 1 µM was 101 to 500% at PKR wt, 1 to 100% at PKR R510Q, 101 to 500% on PKR T384W and 101 to 500% at PKR R532W.

Values taken from US9404081B2, “Pyruvate kinase activators for use in therapy” (AGIOS PHARMACEUTICALS, INC., priority 2011, dated 2016).
